Results: US4008219A, “4-Benzazonine derivatives and process for preparation thereof” (Nihon Iyakuhin Kogyo Co., Ltd., priority 1973, dated 1977)

Tests used:
mice of the ddN-series [1] = test: Analgesic test, Chemical Stimulus Method (Writhing Method); assay type: in vivo, mouse; design: scale not given here; conditions: interabdominal injection, comparative value, scale not given
Description: (§1) Results of comparative tests where the medicinal effects of compounds of this invention were compared with those of known compounds such as pentazocine and codeine phosphate by employing mice and guinea pigs as the test animals are shown in the following Tables I and II.
Chemical Stimulus Method^1)
(interabdominal injection)
(§2) Tested Animal: mice of the ddN-series, .male., 20 ± 1 experimental
(§3) Conditions: temperature of 24 ± 1° C., relative humidity of 65
^1) R. Koster, M. Anderson and E. J. De Beer, Federation Proceedings, […]

mice of the ddN-series [2] = test: Analgesic test, Heat Stimulus Method (Hot Plate Method); assay type: in vivo, mouse; design: reference not given here; conditions: hypodermic injection, comparative value, scale not given
Description: as §1
Heat Stimulus Method^2)
as §2, §3
^2) G. Woolfe and A. D. Mac Donald; Journal of Pharmacology and […]

mice of the ddN-series [3] = test: Analgesic test, Pressure Stimulus Method; assay type: in vivo, mouse; conditions: hypodermic injection, comparative value, pentazocine 1.0
Description: as §1
Pressure Stimulus Method^3)
R (hypodermic injection)
as §2, §3
^3) A. F. Green, P. A. Yound and E. I. Godfrey; British Journal of
Pharmacology and Chemotherapy, 6, 572 (1951)

Acute Toxicity = conditions: in vivo; mouse, intravenous injection
Description: as §2, §3

guinea pigs [4] = test: Antitussive effect, Mechanical Stimulus Method; assay type: in vivo, guinea pig
Source text: as §1
(§4) Comparison of Antitusive Effects
Mechanical Stimulus Method^1)
1) Takagi et al modification [Journal of the Pharmaceutical Society of
Japan, 80, 1497 (1960)] of the test method of H. Konzett and E. Rothlin
[Experientia, 10, 472 (1954)], in which urethane was hypodermically
injected (15 mg/Kg) into guinea pigs and swine hairs were inserted into
the trachea to impart stimulus.

guinea pigs [5] = test: Antitussive effect, Chemical Stimulus Method (SO2 gas); assay type: in vivo, guinea pig; conditions: guinea pigs, SO2 gas
Source text: as §1, §4
2) Takagi et al modification [Journal of Pharmaceutical Society of Japan,
80, 1497 (1960)] of the test method of H. Friebel, C. Reichle and A. V.
Gravenitz [Archiv Fur experimentalle Phathologie und Pharmakologie,
Naunyn-Schmiede-berg's, 224,384 (1955)], in which the test compound was
hypodermically injected into guinea pigs, 30 minutes after the injection
the quinea pigs were put into a desiccator filled with SO2 gas and
kept in the desiccator for 1 minute, then the guinea pigs were put into
another vessel and the degree of coughing was examined.

In the case of `C=CCN1CCC2CC(C1)C(O)c1ccccc12` (stereo not drawn) [R=H, R1=H, R2=H, CH2R3=CH2CHCH2, R4=OH, 4-allyl-2,3,4,5,6,7-hexahydro-1,6-methano-1H-4-benzazonin-7-ol], the “Chemical Stimulus Method (Writhing Method)” value (mice of the ddN-series [1]) is reported as 1.2, the “Heat Stimulus Method (Hot Plate Method)” value (mice of the ddN-series [2]) is reported as 1.4 and the “Pressure Stimulus Method” value (mice of the ddN-series [3]) is reported as 1.4. The LD50 (Acute Toxicity) was 58 mg/kg, the ED50 (guinea pigs [4]; Cavia porcellus, swine hairs inserted into the trachea) was 18.9 mg/kg and the “Effect Ratio to Codeine Phosphate, Mechanical Stimulus Method” value (guinea pigs [4]; codeine phosphate = 100) was 76.6. For the same compound, the ED50 (guinea pigs [5]; Cavia porcellus, sc, 0.5 h, hypodermic injection, 1 minute, 30 minutes after injection, read-out: ED50, Chemical Stimulus Method (antitussive)) was 15.3 mg/kg, the “Effect Ratio to Codeine Phosphate, Chemical Stimulus Method” value (guinea pigs [5]; codeine phosphate = 100) was 86.7 and the solubility in water (Solubility in water) was “water soluble”.
